Like-named read-outs stand apart in the source and are kept apart here.

This is an account of results in patent US20110076278A1 (priority 2005, published 2011).

Series [1] deals with choroidal neovascularization. The series is described as follows: Choroidal neovascularization model with Alzet osmotic pump. It counts as in vivo. Particulars: versus vector (vehicle) alone.
Series [2] can be described thus: Serum concentration in the choroidal neovascularization experiment. The class given is in vivo. Particulars: choroidal neovascularization model, Alzet osmotic pump.
In series [3] the test system is cancer cell lines. The series is described as follows: Proliferation of cancer cell lines. It counts as cell-based.
For series [4] the following is noted: cited from earlier work; for max. plasma concentration: in vivo.
Series [5] concerns VEGF. The series is described as follows: VEGF ELISA on supernatants of ARPE-19 cells under hypoxia. It counts as cell-based. The following applies: Homo sapiens, ARPE-19, hypoxia 24 hours, read-out: IC50 VEGF expression. As for the experimental part: (§1) ARPE-19 was cultured in DMEM/F-12 medium supplemented with 10% heat-inactivated FBS, penicillin (100 U/mL), and streptomycin (100 ug/mL). Cells were grown in incubator with humidified atmosphere containing 5% CO2 at 37° C. To induce hypoxia conditions, cells are placed in a Billups-Rothenberg modular incubator chamber and flushed with artificial atmosphere gas mixture (5% carbon dioxide, 1% oxygen, and balance nitrogen). The hypoxia chamber was then placed in a 37° C. incubator.
(§2) APRE-19 cells were plated in two 96-well plates at a confluence of 80% and cultured overnight. The next day, a series dilution of BNC4 (100, 50, 25, 12.5, 6.25, 3.13, 1.56, 0.78, 0 nM) was added into cultures. […] Supernatants were collected for ELISAs and cells were saved for MTS assay (MTS assay readouts was used in normalizing cell numbers). […] Affection curves (BNC4 on secretion of angiogenesis proteins) and their IC50s were generated by plotting the average normalized absorbance (450 nm minus 540nm) for each treatment on Y axis versus the corresponding BNC4 concentrations on X axis using software XLfit 4.1.
(§3) ELISAs were then performed on the APRE-19 cells treated with BNC4 and incubated under normal or hypoxia conditions as described above. […] Supernatants were collected for ELISAs and cells were saved for MTS assay (MTS assay readouts was used in normalizing cell numbers). […]

The subject of series [6] is angiogenin. The series is described as follows: Angiogenin ELISA on supernatants of ARPE-19 cells under hypoxia. It counts as cell-based. Particulars: Homo sapiens, ARPE-19, hypoxia 24 hours, read-out: IC50 angiogenin expression. As for the experimental part: as §1, §2, §3
The test system of series [7] is HIF-1α. The series is described as follows: HIF-1α Western blot in ARPE-19 cells under hypoxia. The class given is cell-based, human. The protocol: Samples were fractionated on 3-8% Tris-Acetate gel (Invitrogen NUPAGE system) by sodium dodecyl sulfate (SDS)-polyacrylamide gel electropherosis and transferred onto nitrocellulose membrane. […] Anti-Beta-actin monoclonal antibody (Abcam, ab6276-100) was used at a 1:5000 dilution with a 30-minute incubation at room temperature.

Series [8] deals with TIMP-1. The series is described as follows: TIMP-1 ELISA on supernatants of ARPE-19 cells under hypoxia. It counts as cell-based. Particulars: Homo sapiens, ARPE-19, hypoxia 24 hours, read-out: IC50 TIMP-1 expression. As for the experimental part: as §1, §2, §3
On the technique in general: In an ELISA, binding on a coated surface is turned into a signal by an enzyme label.

Consider `C[C@@H]1O[C@@H](O[C@H]2C[C@@H](O)[C@]3(CO)[C@H]4[C@H](O)C[C@]5(C)[C@@H](C6=CC(=O)OC6)CC[C@]5(O)[C@@H]4CC[C@]3(O)C2)[C@H](O)[C@H](O)[C@H]1O` [BNC1, ouabain], for which the “area of choroidal neovascularization” value in series [1] is reported as “reduced the area of choroidal neovascularization”. In addition, the serum concentration in series [2] was found to be 20 ng/mL. In series [3] (combination with steroid signal modulator (Casodex)), the “decrease of the concentration effective for inhibiting proliferation of cancer cells by combination” value was determined as 5 fold. For the same compound, the max. plasma concentration result in series [4] is “about 0.03 μg/mL”.

As for `C[C@@H]1O[C@@H](O[C@@H]2C=C3CC[C@@H]4[C@H](CC[C@]5(C)[C@@H](c6ccc(=O)oc6)CC[C@]45O)[C@@]3(C)CC2)[C@H](O)[C@H](O)[C@H]1O` [BNC4, proscillaridin], the values for the IC50 in series [5], in series [6] and in series [8] were 32.5 nM, 4.5 nM and 12.9 nM, respectively. Besides, the “area of choroidal neovascularization” value in series [1] was “reduced the area of choroidal neovascularization”. Further, the serum concentration in series [2] came out at 60 ng/mL. Further, the “inhibition of hypoxia-mediated HIF-1α induction” value in series [7] (ARPE-19 cells, hypoxia, western blot (FIG. 1)) was “inhibit hypoxia-mediated HIF-1α induction”. The “potency relative to BNC1 in inhibiting HIF-1α expression” value in series [7] (human retinal pigment epithelial cells) is on record as “about 10 times”. The “decrease of the concentration effective for inhibiting proliferation of cancer cells by combination” value in series [3] worked out at 5 fold. Also, the plasma half-life entry in series [4] (human, according to the literature) is reported as “about 40 hours”. In addition, the max. plasma concentration result in series [4] was “about 0.1 μg/mL”.
